Measurements published in patent US9247759B2, “Identification of human T2R receptors that respond to bitter compounds that elicit the bitter taste in compositions, and the use thereof in assays to identify compounds that inhibit (block) bitter taste in compositions and use thereof” (SENOMYX, INC., priority 2007, dated 2016).
Read-outs that look alike come from different tables or passages of the source.

Columns and labels:
hT2R14 [1] = target: T1, hT2R14 (Homo sapiens (Human), UniProt Q9NYV8); test: hT2R14 antagonist high-throughput FLIPR assay, stable cell line with G16g44, agonist aristolochic acid; type: cell-based
T1 sequence (Q9NYV8 whole entry): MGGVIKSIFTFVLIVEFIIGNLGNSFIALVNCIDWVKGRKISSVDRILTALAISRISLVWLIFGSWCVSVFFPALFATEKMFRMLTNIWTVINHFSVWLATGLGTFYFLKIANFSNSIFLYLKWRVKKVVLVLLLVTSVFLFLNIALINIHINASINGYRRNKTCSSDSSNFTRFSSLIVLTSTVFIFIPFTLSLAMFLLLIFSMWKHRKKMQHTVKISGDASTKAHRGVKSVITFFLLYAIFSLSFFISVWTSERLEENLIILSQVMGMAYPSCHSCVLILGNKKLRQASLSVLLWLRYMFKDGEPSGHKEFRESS
Procedure, shortened: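 HEK293 cells stably expressing hT2R14 with chimeric G16g44 were stimulated with aristolochic acid (3 μM), giving 70-80% of maximal receptor activity. Test compounds were added together with the agonist, and antagonism was read as fluorescent calcium signal on FLIPR.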

hT2R3 = hT2R3 (Homo sapiens (Human), UniProt Q9NYW6); test: hT2R panel inhibition, transient HEK293 G16g44, agonist Chloroquine pH6.5 50 μM; type: cell-based; settings: HEK293, compound at 25 μM; receptor activated to EC80 with the corresponding agonist; read-out: screening result against bitter receptor 3
Sequence of hT2R3 (Q9NYW6 whole entry): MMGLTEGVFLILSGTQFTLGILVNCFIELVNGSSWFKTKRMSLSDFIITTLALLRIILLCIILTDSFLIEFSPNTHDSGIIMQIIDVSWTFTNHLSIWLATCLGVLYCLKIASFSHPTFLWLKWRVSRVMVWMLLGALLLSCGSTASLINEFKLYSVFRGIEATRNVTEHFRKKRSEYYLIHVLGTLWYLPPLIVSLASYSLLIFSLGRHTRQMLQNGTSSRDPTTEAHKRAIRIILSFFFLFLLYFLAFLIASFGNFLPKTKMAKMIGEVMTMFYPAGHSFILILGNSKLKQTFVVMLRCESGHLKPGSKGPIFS
Procedure, shortened: (§1)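 Transfect one hT2R per well set; stimulate with agonist at EC80; add test compound; record reduction of functional response as inhibition.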

hT2R4 = hT2R4 (Homo sapiens (Human), UniProt Q9NYW5); test: hT2R panel inhibition, transient HEK293 G16g44, agonist Chloroquine pH6.5 5 mM; type: cell-based; settings: HEK293, compound at 25 μM; receptor activated to EC80 with the corresponding agonist; class symbols; read-out: screening result against bitter receptor 4
Sequence of hT2R4 (Q9NYW5 whole entry): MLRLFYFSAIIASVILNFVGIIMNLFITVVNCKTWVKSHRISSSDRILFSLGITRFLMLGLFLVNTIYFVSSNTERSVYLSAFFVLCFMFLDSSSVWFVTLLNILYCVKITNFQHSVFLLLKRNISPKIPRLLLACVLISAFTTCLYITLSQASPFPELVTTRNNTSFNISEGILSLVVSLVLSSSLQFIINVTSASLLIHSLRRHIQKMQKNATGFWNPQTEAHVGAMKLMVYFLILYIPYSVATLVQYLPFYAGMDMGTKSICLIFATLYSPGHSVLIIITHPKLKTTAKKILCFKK
Procedure, shortened: as §1

hT2R7 = hT2R7 (Homo sapiens (Human), UniProt Q9NYW3); test: hT2R panel inhibition, transient HEK293 G16g44, agonist Chloroquine pH6.5 10 mM; type: cell-based; settings: HEK293, compound at 25 μM; receptor activated to EC80 with the corresponding agonist; read-out: screening result against bitter receptor 7
Sequence of hT2R7 (Q9NYW3 whole entry): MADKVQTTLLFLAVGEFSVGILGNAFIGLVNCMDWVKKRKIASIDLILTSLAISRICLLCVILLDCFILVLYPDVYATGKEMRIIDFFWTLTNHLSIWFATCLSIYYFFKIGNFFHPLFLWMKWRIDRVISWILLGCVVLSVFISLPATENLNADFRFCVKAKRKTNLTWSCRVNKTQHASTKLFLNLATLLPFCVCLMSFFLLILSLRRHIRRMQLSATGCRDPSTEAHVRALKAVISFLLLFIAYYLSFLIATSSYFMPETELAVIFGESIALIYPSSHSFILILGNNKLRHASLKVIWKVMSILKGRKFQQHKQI
Procedure, shortened: as §1

hT2R10 = hT2R10 (Homo sapiens (Human), UniProt Q9NYW0); test: hT2R panel inhibition, transient HEK293 G16g44, agonist Strychnine 50 μM; type: cell-based; settings: HEK293, read-out: screening result against bitter receptor 10, compound at 25 μM; receptor activated to EC80 with the corresponding agonist
Sequence of hT2R10 (Q9NYW0 whole entry): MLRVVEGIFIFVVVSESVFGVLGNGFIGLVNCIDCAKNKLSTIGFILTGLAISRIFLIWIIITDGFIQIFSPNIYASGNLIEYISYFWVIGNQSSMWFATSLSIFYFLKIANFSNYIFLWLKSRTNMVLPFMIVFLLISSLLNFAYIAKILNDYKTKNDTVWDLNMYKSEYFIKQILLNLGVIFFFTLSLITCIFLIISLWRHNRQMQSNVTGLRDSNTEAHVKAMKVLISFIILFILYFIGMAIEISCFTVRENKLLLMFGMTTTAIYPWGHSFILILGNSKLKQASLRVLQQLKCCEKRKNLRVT

hT2R14 [2] = target: T1, hT2R14; test: hT2R panel inhibition, transient HEK293 G16g44, agonist Aristolochic Acid 2 μM; type: cell-based; settings: HEK293, compound at 25 μM; receptor activated to EC80 with the corresponding agonist; read-out: screening result against bitter receptor 14
Procedure, shortened: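 Each hT2R was transiently transfected into HEK293 cells stably expressing G16g44 and assayed functionally for inhibition of agonist response. Agonists were applied at EC80: andrographolide at 0.5 mM for hT2R8 and aristolochic acid at 2 μM for hT2R14.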

hT2R16 = hT2R16 (Homo sapiens (Human), UniProt Q9NYV7); test: hT2R panel inhibition, transient HEK293 G16g44, agonist Salicin 1 mM; type: cell-based; settings: HEK293, compound at 25 μM; receptor activated to EC80 with the corresponding agonist; read-out: screening result against bitter receptor 16
Sequence of hT2R16 (Q9NYV7 whole entry): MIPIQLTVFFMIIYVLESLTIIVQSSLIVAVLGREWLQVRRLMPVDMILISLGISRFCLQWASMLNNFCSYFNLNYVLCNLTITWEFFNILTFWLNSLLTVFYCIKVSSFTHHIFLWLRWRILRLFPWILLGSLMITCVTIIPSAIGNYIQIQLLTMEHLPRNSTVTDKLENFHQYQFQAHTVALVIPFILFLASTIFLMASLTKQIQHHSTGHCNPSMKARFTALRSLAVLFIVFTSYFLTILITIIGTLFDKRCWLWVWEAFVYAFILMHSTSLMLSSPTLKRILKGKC
Procedure, shortened: as §1

hT2R44 = test: hT2R panel inhibition, transient HEK293 G16g44, agonist Denatonium 0.5 μM; type: cell-based, human; settings: compound at 25 μM; receptor activated to EC80 with the corresponding agonist
Procedure, shortened: as §1

hT2R51 = hT2R51 (Homo sapiens (Human), UniProt P59533); test: hT2R panel inhibition, transient HEK293 G16g44, agonist Prop 2.5 μM; type: cell-based; settings: HEK293, compound at 25 μM; receptor activated to EC80 with the corresponding agonist; read-out: screening result against bitter receptor 51
Sequence of hT2R51 (P59533 whole entry): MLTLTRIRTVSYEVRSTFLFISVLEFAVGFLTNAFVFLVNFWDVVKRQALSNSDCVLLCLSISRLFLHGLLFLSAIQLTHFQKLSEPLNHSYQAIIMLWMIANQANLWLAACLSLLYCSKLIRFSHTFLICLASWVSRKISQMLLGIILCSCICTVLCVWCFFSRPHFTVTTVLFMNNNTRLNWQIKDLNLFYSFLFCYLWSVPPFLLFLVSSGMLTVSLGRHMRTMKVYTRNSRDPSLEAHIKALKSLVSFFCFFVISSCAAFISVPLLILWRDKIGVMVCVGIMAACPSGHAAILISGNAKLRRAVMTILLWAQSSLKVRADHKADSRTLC
Procedure, shortened: as §1

hT2R54 = test: hT2R panel inhibition, transient HEK293 G16g44, agonist Ranitidine 5 mM; type: cell-based, human; settings: compound at 25 μM; receptor activated to EC80 with the corresponding agonist
Procedure, shortened: as §1

hT2R55 = test: hT2R panel inhibition, transient HEK293 G16g44, agonist Cinchonine 150 μM; type: cell-based, human; settings: compound at 25 μM; receptor activated to EC80 with the corresponding agonist
Procedure, shortened: as §1

hT2R61 = hT2R61 (Homo sapiens (Human), UniProt P59537); test: hT2R panel inhibition, transient HEK293 G16g44, agonist Aristolochic Acid 25 nM; type: cell-based; settings: HEK293, compound at 25 μM; receptor activated to EC80 with the corresponding agonist; read-out: screening result against bitter receptor 61
Sequence of hT2R61 (P59537 whole entry): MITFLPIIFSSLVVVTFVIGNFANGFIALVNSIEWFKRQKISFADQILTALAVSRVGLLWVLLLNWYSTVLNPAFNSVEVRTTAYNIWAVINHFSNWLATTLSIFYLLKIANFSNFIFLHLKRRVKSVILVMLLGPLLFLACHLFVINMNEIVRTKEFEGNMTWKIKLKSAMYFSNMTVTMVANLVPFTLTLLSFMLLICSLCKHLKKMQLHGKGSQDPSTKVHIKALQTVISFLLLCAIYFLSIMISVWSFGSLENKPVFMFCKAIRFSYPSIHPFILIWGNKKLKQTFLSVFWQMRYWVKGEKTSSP
Procedure, shortened: as §1

hT2R63 = test: hT2R panel inhibition, transient HEK293 G16g44, agonist Caffeine 1 mM or Andrographolide 100 μM; type: cell-based, human; settings: compound at 25 μM; receptor activated to EC80 with the corresponding agonist
Procedure, shortened: as §1

hT2R64 = hT2R64 (Homo sapiens (Human), UniProt P59538); test: hT2R panel inhibition, transient HEK293 G16g44, agonist Aristolochic Acid 1 μM; type: cell-based; settings: HEK293, compound at 25 μM; receptor activated to EC80 with the corresponding agonist; read-out: screening result against bitter receptor 64
Sequence of hT2R64 (P59538 whole entry): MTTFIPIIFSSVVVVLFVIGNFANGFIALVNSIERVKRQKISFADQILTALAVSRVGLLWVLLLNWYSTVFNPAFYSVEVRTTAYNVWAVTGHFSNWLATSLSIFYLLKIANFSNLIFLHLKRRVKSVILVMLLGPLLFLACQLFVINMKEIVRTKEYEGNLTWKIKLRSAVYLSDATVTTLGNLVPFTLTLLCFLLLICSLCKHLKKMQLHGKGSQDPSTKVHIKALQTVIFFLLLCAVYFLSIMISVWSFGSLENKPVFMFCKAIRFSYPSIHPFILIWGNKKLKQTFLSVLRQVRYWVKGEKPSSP
Procedure, shortened: as §1

hT2R65 = test: hT2R panel inhibition, transient HEK293 G16g44, agonist Oleuropein 1 mM; type: cell-based, human; settings: compound at 25 μM; receptor activated to EC80 with the corresponding agonist
Procedure, shortened: as §1

hT2R71 = hT2R71 (Homo sapiens (Human), UniProt P59536); test: hT2R panel inhibition, transient HEK293 G16g44, agonist Picric Acid 10 μM; type: cell-based; settings: HEK293, compound at 25 μM; receptor activated to EC80 with the corresponding agonist; read-out: screening result against bitter receptor 71
Sequence of hT2R71 (P59536 whole entry): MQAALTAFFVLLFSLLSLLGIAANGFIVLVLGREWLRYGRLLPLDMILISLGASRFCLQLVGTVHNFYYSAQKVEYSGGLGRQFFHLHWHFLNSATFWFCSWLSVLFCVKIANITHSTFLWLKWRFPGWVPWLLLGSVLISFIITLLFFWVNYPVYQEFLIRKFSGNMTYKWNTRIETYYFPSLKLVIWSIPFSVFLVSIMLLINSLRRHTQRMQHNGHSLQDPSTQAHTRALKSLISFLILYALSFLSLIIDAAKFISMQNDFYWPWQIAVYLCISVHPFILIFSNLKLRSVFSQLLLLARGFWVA
Procedure, shortened: as §1

hT2R75 = hT2R75 (Homo sapiens (Human), UniProt P59540); test: hT2R panel inhibition, transient HEK293 G16g44, agonist Strychnine 1 μM; type: cell-based; settings: HEK293, read-out: screening result against bitter receptor 75, compound at 25 μM; receptor activated to EC80 with the corresponding agonist
Sequence of hT2R75 (P59540 whole entry): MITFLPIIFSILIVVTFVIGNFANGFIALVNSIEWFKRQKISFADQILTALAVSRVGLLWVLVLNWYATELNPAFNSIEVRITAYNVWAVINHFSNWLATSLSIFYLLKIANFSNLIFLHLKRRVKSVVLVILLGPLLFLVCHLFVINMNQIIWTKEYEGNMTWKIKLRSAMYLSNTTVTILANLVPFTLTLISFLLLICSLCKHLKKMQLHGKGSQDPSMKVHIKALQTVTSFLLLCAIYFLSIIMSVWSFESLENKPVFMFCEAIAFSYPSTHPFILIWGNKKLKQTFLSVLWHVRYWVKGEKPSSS

hT2R5 = hT2R5 (Homo sapiens (Human), UniProt Q9NYW4); test: hT2R panel inhibition, transient HEK293 G16g44, agonist Picoline 10 mM; type: cell-based; settings: HEK293, compound at 25 μM; receptor activated to EC80 with the corresponding agonist; read-out: screening result against bitter receptor 5
Sequence of hT2R5 (Q9NYW4 whole entry): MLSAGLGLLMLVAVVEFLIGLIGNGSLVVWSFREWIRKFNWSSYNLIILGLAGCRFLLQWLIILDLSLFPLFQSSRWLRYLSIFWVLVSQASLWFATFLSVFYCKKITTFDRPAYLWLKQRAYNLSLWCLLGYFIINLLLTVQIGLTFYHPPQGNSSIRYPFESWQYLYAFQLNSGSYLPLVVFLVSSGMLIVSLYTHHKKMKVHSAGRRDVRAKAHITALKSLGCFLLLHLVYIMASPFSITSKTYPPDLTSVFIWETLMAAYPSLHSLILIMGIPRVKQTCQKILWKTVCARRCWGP
Procedure, shortened: as §1

hT2R67 = test: hT2R panel inhibition, transient HEK293 G16g44, agonist Andrographolide 5 μM; type: cell-based, human; settings: compound at 25 μM; receptor activated to EC80 with the corresponding agonist
Procedure, shortened: as §1

[3] = read-out: IC50 on hT2R14 bitter receptor

## COc1cccc(CN(Cc2ccco2)S(=O)(=O)c2ccc(C(=O)O)cc2)c1 [Example 5-6, 4-(N-(furan-2-ylmethyl)-N-(3-methoxybenzyl)sulfamoyl)benzoic acid]
hT2R14 [1]; [3]
  IC50: 10000 nM
hT2R3
  inhibition at 25 µM: 20 to 40%
hT2R4
  inhibition at 25 µM: 20 to 40%
hT2R7
  inhibition at 25 µM: 20 to 40%
hT2R10
  inhibition at 25 µM: 40 to 60%
hT2R14 [2]
  inhibition at 25 µM: > 80%
hT2R16
  inhibition at 25 µM: 20 to 40%
hT2R44
  screening result against bitter receptor 44: ++ (40% to 60% inhibition = ++)
hT2R51
  inhibition at 25 µM: 40 to 60%
hT2R54
  screening result against bitter receptor 54: + (20% to 40% inhibition = +)
hT2R55
  screening result against bitter receptor 55: ++++ (80% or greater inhibition = ++++)
hT2R61
  inhibition at 25 µM: > 80%
hT2R63
  screening result against bitter receptor 63: ++++ (80% or greater inhibition = ++++)
hT2R64
  inhibition at 25 µM: > 80%
hT2R65
  screening result against bitter receptor 65: + (20% to 40% inhibition = +)
hT2R71
  inhibition at 25 µM: 40 to 60%
hT2R75
  inhibition at 25 µM: 20 to 40%

## CCCOc1ccc(CN(Cc2ccco2)S(=O)(=O)c2ccc(C(=O)O)cc2)cc1 [Example 5-8, 4-(N-(4-propoxybenzyl)-N-(furan-2-ylmethyl)sulfamoyl)benzoic acid]
hT2R14 [1]; [3]
  IC50: 2500 nM
hT2R3
  inhibition at 25 µM: 20 to 40%
hT2R4
  inhibition at 25 µM: 40 to 60%
hT2R10
  inhibition at 25 µM: 40 to 60%
hT2R14 [2]
  inhibition at 25 µM: > 80%
hT2R16
  inhibition at 25 µM: 20 to 40%
hT2R44
  screening result against bitter receptor 44: ++ (40% to 60% inhibition = ++)
hT2R51
  inhibition at 25 µM: 40 to 60%
hT2R54
  screening result against bitter receptor 54: + (20% to 40% inhibition = +)
hT2R55
  screening result against bitter receptor 55: ++++ (80% or greater inhibition = ++++)
hT2R61
  inhibition at 25 µM: 60 to 80%
hT2R63
  screening result against bitter receptor 63: ++ (40% to 60% inhibition = ++)
hT2R64
  inhibition at 25 µM: > 80%
hT2R65
  screening result against bitter receptor 65: ++ (40% to 60% inhibition = ++)
hT2R71
  inhibition at 25 µM: 40 to 60%
hT2R75
  inhibition at 25 µM: 20 to 40%

## COc1ccc(CN(Cc2ccc(C(=O)O)cc2)S(=O)(=O)c2ccccc2)cc1 [Example 5-102, 4-((N-(4-methoxybenzyl)phenylsulfonamido)methyl) benzoic acid]
hT2R14 [1]; Table C, read-out: hT2R14 IC50
  IC50: 2220 nM
hT2R3
  inhibition at 25 µM: 40 to 60%
hT2R4
  inhibition at 25 µM: 40 to 60%
hT2R5
  inhibition at 25 µM: 20 to 40%
hT2R7
  inhibition at 25 µM: 40 to 60%
hT2R10
  inhibition at 25 µM: 20 to 40%
hT2R14 [2]
  inhibition at 25 µM: > 80%
hT2R16
  inhibition at 25 µM: 20 to 40%
hT2R44
  screening result against bitter receptor 44: +++ (60% to 80% inhibition = +++)
hT2R51
  inhibition at 25 µM: 20 to 40%
hT2R54
  screening result against bitter receptor 54: + (20% to 40% inhibition = +)
hT2R55
  screening result against bitter receptor 55: ++++ (80% or greater inhibition = ++++)
hT2R61
  inhibition at 25 µM: > 80%
hT2R63
  screening result against bitter receptor 63: + (20% to 40% inhibition = +)
hT2R64
  inhibition at 25 µM: 60 to 80%
hT2R65
  screening result against bitter receptor 65: ++ (40% to 60% inhibition = ++)
hT2R67
  screening result against bitter receptor 67: + (20% to 40% inhibition = +)
hT2R71
  inhibition at 25 µM: 60 to 80%
hT2R75
  inhibition at 25 µM: 20 to 40%

## O=C(O)c1ccc(CN(Cc2ccccc2F)S(=O)(=O)c2ccccc2)cc1 [Example 5-103, 4-((N-(2-fluorobenzyl)phenylsulfonamido)methyl)-benzoic acid]
hT2R14 [1]; Table C, read-out: hT2R14 IC50
  IC50: 429 nM
hT2R3
  inhibition at 25 µM: 40 to 60%
hT2R4
  inhibition at 25 µM: 40 to 60%
hT2R5
  inhibition at 25 µM: 20 to 40%
hT2R7
  inhibition at 25 µM: 20 to 40%
hT2R10
  inhibition at 25 µM: 20 to 40%
hT2R14 [2]
  inhibition at 25 µM: > 80%
hT2R16
  inhibition at 25 µM: 20 to 40%
hT2R44
  screening result against bitter receptor 44: +++ (60% to 80% inhibition = +++)
hT2R51
  inhibition at 25 µM: 20 to 40%
hT2R54
  screening result against bitter receptor 54: ++ (40% to 60% inhibition = ++)
hT2R55
  screening result against bitter receptor 55: ++++ (80% or greater inhibition = ++++)
hT2R61
  inhibition at 25 µM: > 80%
hT2R63
  screening result against bitter receptor 63: ++ (40% to 60% inhibition = ++)
hT2R64
  inhibition at 25 µM: > 80%
hT2R65
  screening result against bitter receptor 65: ++ (40% to 60% inhibition = ++)
hT2R67
  screening result against bitter receptor 67: + (20% to 40% inhibition = +)
hT2R71
  inhibition at 25 µM: > 80%
hT2R75
  inhibition at 25 µM: 20 to 40%

## O=C(O)c1ccc(CN(Cc2ccc(F)cc2)S(=O)(=O)c2ccccc2)cc1 [Example 5-105, 4-((N-(4-fluorobenzyl)phenylsulfonamido)methyl)-benzoic acid]
hT2R14 [1]; Table C, read-out: hT2R14 IC50
  IC50: 935 nM
hT2R3
  inhibition at 25 µM: 20 to 40%
hT2R4
  inhibition at 25 µM: 20 to 40%
hT2R5
  inhibition at 25 µM: 20 to 40%
hT2R7
  inhibition at 25 µM: 20 to 40%
hT2R10
  inhibition at 25 µM: 20 to 40%
hT2R14 [2]
  inhibition at 25 µM: > 80%
hT2R16
  inhibition at 25 µM: 40 to 60%
hT2R44
  screening result against bitter receptor 44: ++ (40% to 60% inhibition = ++)
hT2R54
  screening result against bitter receptor 54: + (20% to 40% inhibition = +)
hT2R55
  screening result against bitter receptor 55: ++++ (80% or greater inhibition = ++++)
hT2R61
  inhibition at 25 µM: > 80%
hT2R63
  screening result against bitter receptor 63: ++ (40% to 60% inhibition = ++)
hT2R64
  inhibition at 25 µM: > 80%
hT2R65
  screening result against bitter receptor 65: +++ (60% to 80% inhibition = +++)
hT2R67
  screening result against bitter receptor 67: ++ (40% to 60% inhibition = ++)
hT2R71
  inhibition at 25 µM: 60 to 80%
hT2R75
  inhibition at 25 µM: 20 to 40%
